Experiments:
[1] = test system: IPOHE (Morningglory, Ivyleaf); assay: Preemergence herbicidal evaluation; type: in vivo, Ipomoea hederacea; details: rated 4-5 weeks after treatment
Procedure, shortened: (§1)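 In this greenhouse assay, monocot and dicot seeds are planted in soil and treated prior to emergence with an aqueous acetone spray (about 0.0156-0.500 kg/ha). Plants are assessed visually against control on a 0-9 scale after 4-5 weeks.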

[2] = test system: TRZAWR (Wheat, Winter, cv Riband); assay: Preemergence herbicidal evaluation; type: in vivo, Triticum aestivum; details: rated 4-5 weeks after treatment
Procedure, shortened: as §1

[3] = test system: CYPSE (Flatsedge); assay: Postemergence weed control under flooded paddy conditions; type: in vivo, Cyperus serotinus; details: postemergence weeds, rated 3 to 4 weeks after treatment
Procedure, shortened: (§2)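 Containers holding 3–5 cm weeds and rice at 1.5–2.5 leaves are flooded to 1.5–3 cm above soil. Compound in 50/50 v/v aqueous/acetone is then added directly to the water, about 0.0313–0.500 kg/ha. Plants are kept in the greenhouse and rated 0–9 visually at 3–4 weeks.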

[4] = test system: SETVI (Foxtail, Green); assay: Postemergence herbicidal evaluation; type: in vivo, Setaria viridis
Procedure, shortened: (§3)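 Scores (0–9) reflect plant stand, vigor, malformation, size, chlorosis and general appearance relative to control, read 4 to 5 weeks after treatment and averaged where tests were repeated. Application: about 0.0156–0.500 kg/ha sprayed at 40 psi onto two-week seedlings.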

[5] = test system: ECHCG (Barnyardgrass); assay: Preemergence herbicidal evaluation; type: in vivo, Echinochloa crus-galli; details: rated 4-5 weeks after treatment
Procedure, shortened: as §1

[6] = test system: ZEAMX (Corn, Field); assay: Preemergence herbicidal evaluation; type: in vivo, Zea mays; details: rated 4-5 weeks after treatment
Procedure, shortened: as §1

[7] = test system: CHEAL (Lambsquarters, Common); assay: Postemergence herbicidal evaluation; type: in vivo, Chenopodium album
Procedure, shortened: as §3

[8] = test system: CYPIR (Rice Flatsedge); assay: Postemergence weed control under flooded paddy conditions; type: in vivo, Cyperus iria; details: postemergence weeds, rated 3 to 4 weeks after treatment
Procedure, shortened: as §2

[9] = test system: ZEAMX (Corn, Field); assay: Postemergence herbicidal evaluation; type: in vivo, Zea mays
Procedure, shortened: as §3

[10] = test system: ABUTH (Velvetleaf); assay: Preemergence herbicidal evaluation; type: in vivo, Abutilon theophrasti; details: rated 4-5 weeks after treatment
Procedure, shortened: as §1

[11] = test system: GLXMAW (Soybean, Williams); assay: Preemergence herbicidal evaluation; type: in vivo, Glycine max, (L.) Merr. cv Williams; details: rated 4-5 weeks after treatment
Procedure, shortened: as §1

[12] = test system: ECHCG (Barnyardgrass); assay: Postemergence herbicidal evaluation; type: in vivo, Echinochloa crus-galli
Procedure, shortened: as §3

[13] = test system: ABUTH (Velvetleaf); assay: Postemergence herbicidal evaluation; type: in vivo, Abutilon theophrasti
Procedure, shortened: as §3

[14] = test system: CASOB (Sicklepod); assay: Preemergence herbicidal evaluation; type: in vivo, Cassia obtusifolia; details: rated 4-5 weeks after treatment
Procedure, shortened: as §1

[15] = test system: IPOHE (Morningglory, Ivyleaf); assay: Postemergence herbicidal evaluation; type: in vivo, Ipomoea hederacea
Procedure, shortened: as §3

[16] = test system: CHEAL (Lambsquarters, Common); assay: Preemergence herbicidal evaluation; type: in vivo, Chenopodium album; details: rated 4-5 weeks after treatment
Procedure, shortened: as §1

[17] = test system: ORYSAT (Rice, Tebonnet); assay: Postemergence herbicidal evaluation; type: in vivo, Oryza sativa, (L.) Tebonnet
Procedure, shortened: as §3

CCOC(=O)CN1C(=O)C(CC(=O)OC(C)C)SC1=Nc1cc(-n2c(=O)cc(C(F)(F)F)n(C)c2=O)c(F)cc1Cl (stereo not shown) [Compound 60, 2-{{2-Chloro-5-[3,6-dihydro-3-methyl-2,6-dioxo-4-(trifluoromethyl)-1(2H)-pyrimidinyl]-4-fluoro-phenyl}imino}-4-oxo-3,5-thiazolidinediacetic acid, 3-ethyl isopropyl ester]
Preemergence herbicidal rating IPOHE ([1]; rate 0.0156 kg/ha): 0.0 | Preemergence herbicidal rating IPOHE ([1]; rate 0.0313 kg/ha): 0.0 | Preemergence herbicidal rating IPOHE ([1]; rate 0.0625 kg/ha): 0.0 | Preemergence herbicidal rating IPOHE ([1]; rate 0.1250 kg/ha): 2.0 | Preemergence herbicidal rating IPOHE ([1]; rate 0.2500 kg/ha): 5.0 | Preemergence herbicidal rating IPOHE ([1]; rate 0.5000 kg/ha): 9.0 | Preemergence herbicidal rating TRZAWR ([2]; rate 0.0156 kg/ha): 0.0 | Preemergence herbicidal rating TRZAWR ([2]; rate 0.0313 kg/ha): 0.0 | Preemergence herbicidal rating TRZAWR ([2]; rate 0.0625 kg/ha): 0.0 | Preemergence herbicidal rating TRZAWR ([2]; rate 0.1250 kg/ha): 1.0 | Preemergence herbicidal rating TRZAWR ([2]; rate 0.2500 kg/ha): 1.0 | Herbicidal rating CYPSE ([3]; Rate 0.0313 kg/ha): 2.0 | Herbicidal rating CYPSE ([3]; Rate 0.0625 kg/ha): 2.0 | Herbicidal rating CYPSE ([3]; Rate 0.1250 kg/ha): 4.0 | Herbicidal rating CYPSE ([3]; Rate 0.2500 kg/ha): 4.0 | Postemergence herbicidal rating SETVI ([4]; Rate 0.0158 kg/ha): 0.0 | Postemergence herbicidal rating SETVI ([4]; Rate 0.0315 kg/ha): 4.0 | Postemergence herbicidal rating SETVI ([4]; Rate 0.0630 kg/ha): 5.0 | Preemergence herbicidal rating ECHCG ([5]; rate 0.0156 kg/ha): 0.0 | Preemergence herbicidal rating ECHCG ([5]; rate 0.0313 kg/ha): 0.0 | Preemergence herbicidal rating ECHCG ([5]; rate 0.0625 kg/ha): 0.0 | Preemergence herbicidal rating ECHCG ([5]; rate 0.1250 kg/ha): 0.0 | Preemergence herbicidal rating ECHCG ([5]; rate 0.2500 kg/ha): 0.5 | Preemergence herbicidal rating ECHCG ([5]; rate 0.5000 kg/ha): 2.0 | Preemergence herbicidal rating ZEAMX ([6]; rate 0.0156 kg/ha): 0.0 | Preemergence herbicidal rating ZEAMX ([6]; rate 0.0313 kg/ha): 0.0 | Preemergence herbicidal rating ZEAMX ([6]; rate 0.0625 kg/ha): 0.5 | Preemergence herbicidal rating ZEAMX ([6]; rate 0.1250 kg/ha): 1.5 | Preemergence herbicidal rating ZEAMX ([6]; rate 0.2500 kg/ha): 3.0 | Preemergence herbicidal rating ZEAMX ([6]; rate 0.5000 kg/ha): 8.0 | Postemergence herbicidal rating CHEAL ([7]; Rate 0.0158 kg/ha): 4.0 | Postemergence herbicidal rating CHEAL ([7]; Rate 0.0315 kg/ha): 4.0 | Postemergence herbicidal rating CHEAL ([7]; Rate 0.0630 kg/ha): 9.0 | Herbicidal rating CYPIR ([8]; Rate 0.0313 kg/ha): 3.0 | Herbicidal rating CYPIR ([8]; Rate 0.0625 kg/ha): 3.0 | Herbicidal rating CYPIR ([8]; Rate 0.1250 kg/ha): 6.0 | Herbicidal rating CYPIR ([8]; Rate 0.2500 kg/ha): 6.0 | Postemergence herbicidal rating ZEAMX ([9]; Rate 0.0158 kg/ha): 5.0 | Postemergence herbicidal rating ZEAMX ([9]; Rate 0.0315 kg/ha): 5.0 | Postemergence herbicidal rating ZEAMX ([9]; Rate 0.0630 kg/ha): 5.5 | Preemergence herbicidal rating ABUTH ([10]; rate 0.0156 kg/ha): 2.0 | Preemergence herbicidal rating ABUTH ([10]; rate 0.0313 kg/ha): 9.0 | Preemergence herbicidal rating ABUTH ([10]; rate 0.0625 kg/ha): 7.0 | Preemergence herbicidal rating ABUTH ([10]; rate 0.1250 kg/ha): 9.0 | Preemergence herbicidal rating ABUTH ([10]; rate 0.2500 kg/ha): 9.0 | Preemergence herbicidal rating ABUTH ([10]; rate 0.5000 kg/ha): 9.0 | Preemergence herbicidal rating GLXMAW ([11]; rate 0.0156 kg/ha): 1.0 | Preemergence herbicidal rating GLXMAW ([11]; rate 0.0313 kg/ha): 0.5 | Preemergence herbicidal rating GLXMAW ([11]; rate 0.0625 kg/ha): 1.5 | Preemergence herbicidal rating GLXMAW ([11]; rate 0.1250 kg/ha): 3.0 | Preemergence herbicidal rating GLXMAW ([11]; rate 0.2500 kg/ha): 3.5 | Preemergence herbicidal rating GLXMAW ([11]; rate 0.5000 kg/ha): 6.0 | Postemergence herbicidal rating ECHCG ([12]; Rate 0.0158 kg/ha): 0.0 | Postemergence herbicidal rating ECHCG ([12]; Rate 0.0315 kg/ha): 0.0 | Postemergence herbicidal rating ECHCG ([12]; Rate 0.0630 kg/ha): 0.0 | Postemergence herbicidal rating ABUTH ([13]; Rate 0.0158 kg/ha): 9.0 | Postemergence herbicidal rating ABUTH ([13]; Rate 0.0315 kg/ha): 9.0 | Postemergence herbicidal rating ABUTH ([13]; Rate 0.0630 kg/ha): 9.0 | Preemergence herbicidal rating CASOB ([14]; rate 0.0156 kg/ha): 0.0 | Preemergence herbicidal rating CASOB ([14]; rate 0.0313 kg/ha): 0.0 | Preemergence herbicidal rating CASOB ([14]; rate 0.0625 kg/ha): 0.0 | Preemergence herbicidal rating CASOB ([14]; rate 0.1250 kg/ha): 1.0 | Preemergence herbicidal rating CASOB ([14]; rate 0.2500 kg/ha): 5.5 | Preemergence herbicidal rating CASOB ([14]; rate 0.5000 kg/ha): 4.0 | Postemergence herbicidal rating IPOHE ([15]; Rate 0.0158 kg/ha): 9.0 | Postemergence herbicidal rating IPOHE ([15]; Rate 0.0315 kg/ha): 9.0 | Postemergence herbicidal rating IPOHE ([15]; Rate 0.0630 kg/ha): 9.0 | Preemergence herbicidal rating CHEAL ([16]; rate 0.0156 kg/ha): 9.0 | Preemergence herbicidal rating CHEAL ([16]; rate 0.0313 kg/ha): 8.0 | Preemergence herbicidal rating CHEAL ([16]; rate 0.0625 kg/ha): 9.0 | Preemergence herbicidal rating CHEAL ([16]; rate 0.1250 kg/ha): 9.0 | Preemergence herbicidal rating CHEAL ([16]; rate 0.2500 kg/ha): 9.0 | Preemergence herbicidal rating CHEAL ([16]; rate 0.5000 kg/ha): 9.0 | Postemergence herbicidal rating ORYSAT ([17]; Rate 0.0158 kg/ha): 3.0 | Postemergence herbicidal rating ORYSAT ([17]; Rate 0.0315 kg/ha): 3.0 | Postemergence herbicidal rating ORYSAT ([17]; Rate 0.0630 kg/ha): 5.0

Reference: US20020137929A1, “1 - (3-heterocyclylphenyl) isothiourea, -isourea, -guanidine and -amidine herbicidal agents” (Intellectual Property Department, BASF Aktiengesellschaft, priority 1998, published 2002)
